Measured values published in publication PMC9454246, “The PqsE Active Site as a Target for Small Molecule Antimicrobial Agents against Pseudomonas aeruginosa” (Biochemistry, 2022).

Assays:
PqsE [1] = molecular target: T1, PqsE (Pseudomonas aeruginosa, UniProt P20581); assay: Competitive fluorescence polarization with the BB562 active site probe; conditions: competition with BB562 active site probe for binding to PqsE; one experiment performed in triplicate
T1 construct: made in house
Source text: (a) Structures of the precursor molecules BB391 and BB393 and the hybrid derivative BB580. Positions denoted 1, 2, and 3 were derivatized to explore the binding affinity for the PqsE active site. […] Polarization value for PqsE-BB562 in the absence of a competitor is defined as 100% probe bound. All polarization values were background-subtracted by the reading for the probe in the absence of PqsE (background fluorescence). […] Both the BB584 molecule and key PqsE amino acid sidechains are shown as sticks. Amino acid sidechain carbons are depicted in gray and BB584 carbons are shown in tan. Iron atoms and water molecules are shown as orange and green spheres, respectively. Oxygen and nitrogen atoms are in red and blue, respectively. Hydrogen bonds are shown as dotted yellow lines.
6xHis-PqsE proteins were purified for biochemical assays (tagged) and crystallography (tag removed), as described previously.[24] Enzyme activities of purified 6xHis-PqsE variants were measured as previously reported with MU-butyrate as the substrate.[25] Fluorescence polarization assays with the BB562 active site probe were performed as described.[24] The melting temperature (Tm) of each purified 6xHis-PqsE variant was measured using DSF as described previously.[24] Interaction between PqsE and RhlR proteins in vitro was measured as described previously using pull-down assays.[24] Pyocyanin production by P. aeruginosa PA14 strains carrying pqsE variants on the pUCP18 plasmid was measured as described.[24] The ability of PqsE variants to increase RhlR transcription factor activity in an E. coli reporter assay was assessed as previously described.[24] All small molecule syntheses and characterization are described in the Supporting Information. […]
a Design of Hybrid Scaffold b Core Aromatic Group […]
Engaging Hydrophobic Groove […]
the amide bond orientation. b) Optimization of “position 2”, the core aromatic group. c) Optimization of “position 3”, the hydrophobic tail. Competition curves with the BB562 active site fluorescent probe were f it from the average of triplicates and erro r bars represent standard deviation s. Polarization value for PqsE-BB562 in the absence of competitor is defined as 100% Probe Bound. All polarization values were background-subtracted by the reading for the probe in the absence of PqsE (background fluorescence).

PqsE–RhlR interaction = molecular target: T2, PqsE–RhlR interaction (Pseudomonas aeruginosa, UniProt P20581); assay: PqsE–RhlR interaction (in vitro pull-down); type: binding; conditions: in words
T2 construct: made in house
Description: (§1) 6xHis-PqsE proteins were purified for biochemical assays (tagged) and crystallography (tag removed), as described previously.[24] Enzyme activities of purified 6xHis-PqsE variants were measured as previously reported with MU-butyrate as the substrate.[25] Fluorescence polarization assays with the BB562 active site probe were performed as described.[24] The melting temperature (Tm) of each purified 6xHis-PqsE variant was measured using DSF as described previously.[24] Interaction between PqsE and RhlR proteins in vitro was measured as described previously using pull-down assays.[24] Pyocyanin production by P. aeruginosa PA14 strains carrying pqsE variants on the pUCP18 plasmid was measured as described.[24] The ability of PqsE variants to increase RhlR transcription factor activity in an E. coli reporter assay was assessed as previously described.[24] All small molecule syntheses and characterization are described in the Supporting Information.

PqsE [2] = molecular target: T1, PqsE; conditions: in words; cited from earlier work
PqsE(D73A) = PqsE(D73A) (Pseudomonas aeruginosa, UniProt P20581, D73A); conditions: read-out: BB562 Binding Kapp; PqsE variant D73A; 2 µM MnCl2
Description: (§2) (a) Structure of PqsE(E182W) (blue) overlaid with that of WT PqsE (PDB: 2Q0I, gray). The active site iron atoms are shown in orange. […] (b) Structure of PqsE(E182W/E280A) (maroon) overlaid with that of WT PqsE (as in a). In panels a and b, residue E280 is shown in stick representation. […] Kapp was determined in two independent experiments performed in triplicate. (d) Hydrolysis of 4-methylumbelliferyl butyrate (MU-butyrate) by the designated purified PqsE proteins. Values are represented as % activity of WT PqsE protein. Results are the average of two independent experiments performed in triplicate. Error bars represent standard deviations. (e) First derivative plots (dF/dT is defined as the change in SYPRO Orange fluorescence divided by change in temperature) of melting curves for the designated PqsE proteins. The peak of each curve is defined as the Tm of that protein.
as §1
(§3) a Stability of PqsE Proteins WT
(§4) Hydrolysis of MU-butyrate
(§5) Fig. S3. Biochemical characterization of purified PqsE variants. a) First derivative plots of melt curves for
(§6) PqsE prot eins. All proteins were tested at 5 µM with 200 µM MnCl 2. dF/dT indicates the change in SYPRO
(§7) Orange fluorescence divided by the change in tempera ture.
(§8) Results are the average of two independent experiments performed in triplicate.
(§9) Error bars represent standard deviations.

PqsE(D73A/E182W) = PqsE(D73A/E182W) (Pseudomonas aeruginosa, UniProt P20581, D73A/E182W); conditions: read-out: BB562 Binding Kapp; PqsE variant D73A/E182W; 2 µM MnCl2; error ND (could not be calculated)
Description: as §2, §1, §3, §4, §5, §6, §7, §8, §9

PqsE(D73A/E280A) = PqsE(D73A/E280A) (Pseudomonas aeruginosa, UniProt P20581, D73A/E280A); conditions: read-out: BB562 Binding Kapp; PqsE variant D73A/E280A; 2 µM MnCl2
Description: as §2, §1, §3, §4, §5, §6, §7, §8, §9

PqsE(D73A/NI) = PqsE(D73A/NI) (Pseudomonas aeruginosa, UniProt P20581, D73A/R243A/R246A/R247A); conditions: read-out: BB562 Binding Kapp; PqsE variant D73A/NI; 2 µM MnCl2; error ND (could not be calculated)
Description: as §2, §1, §3, §4, §5, §6, §7, §8, §9

PqsE(E182W) = PqsE(E182W) (Pseudomonas aeruginosa, UniProt P20581, E182W)
Description: as §2, §1, §3, §4, §5, §6, §7, §8, §9

PqsE(E182W/E280A) = PqsE(E182W/E280A) (Pseudomonas aeruginosa, UniProt P20581, E182W/E280A)
Description: as §2, §1, §3, §4, §5, §6, §7, §8, §9

PqsE(E182W/NI) = PqsE(E182W/NI) (Pseudomonas aeruginosa, UniProt P20581, E182W/R243A/R246A/R247A); conditions: read-out: BB562 Binding Kapp; PqsE variant E182W/NI; 2 µM MnCl2; error ND (could not be calculated)
Description: as §2, §1, §3, §4, §5, §6, §7, §8, §9

PqsE(E280A) = PqsE(E280A) (Pseudomonas aeruginosa, UniProt P20581, E280A); conditions: read-out: BB562 Binding Kapp; PqsE variant E280A; 2 µM MnCl2
Description: as §2, §1, §3, §4, §5, §6, §7, §8, §9

PqsE(NI) = PqsE(NI) (Pseudomonas aeruginosa, UniProt P20581, R243A/R246A/R247A); conditions: read-out: BB562 Binding Kapp; PqsE variant NI (R243A/R246A/R247A); 2 µM MnCl2
Description: as §2, §1, §3, §4, §5, §6, §7, §8, §9

PqsE(NI/E280A) = PqsE(NI/E280A) (Pseudomonas aeruginosa, UniProt P20581, E280A/R243A/R246A/R247A); conditions: read-out: BB562 Binding Kapp; PqsE variant NI/E280A; 2 µM MnCl2
Description: as §2, §1, §3, §4, §5, §6, §7, §8, §9

WT PqsE = WT PqsE (Pseudomonas aeruginosa, UniProt P20581); conditions: read-out: BB562 Binding Kapp, 2 µM MnCl2, two independent experiments in triplicate
Description: as §2, §1, §3, §4, §5, §6, §7, §8, §9

## O=C(Nc1cccc(-c2ccn[nH]2)c1)c1cccc2cn[nH]c12 [BB391]
PqsE [1]
  EC50: 160 ± 54 nM
PqsE–RhlR interaction
  inhibition/disruption of the PqsE–RhlR interaction: none of the three compounds disrupt the PqsE–RhlR interaction
PqsE [2]
  competition with the BB562 active site probe for binding to PqsE: mid-nanomolar

## CCC(C)(CNC(=O)Nc1ccc(C(=O)Nc2nccs2)cc1)N1CCOCC1 (stereo not drawn) [BB393]
PqsE [1]
  EC50: 93 ± 29 nM
PqsE–RhlR interaction
  inhibition/disruption of the PqsE–RhlR interaction: none of the three compounds disrupt the PqsE–RhlR interaction
PqsE [2]
  competition with the BB562 active site probe for binding to PqsE: mid-nanomolar

## O=C(NCCCn1cc(-c2ccc(NC(=O)c3cccc4cn[nH]c34)cc2)nn1)c1ccc2c(c1)C(=O)OC21c2ccc(O)cc2Oc2cc(O)ccc21 [BB562]
PqsE(D73A)
  Kd: 507 ± 380 nM
PqsE(D73A/E182W)
  Kd: 8120 nM
PqsE(D73A/E280A)
  Kd: 468 ± 300 nM
PqsE(D73A/NI)
  Kd: 564 nM
PqsE(E182W); PqsE(E182W), in words, relative to WT PqsE
  binding affinity for the active site fluorescent probe: reduced binding affinity
PqsE(E182W); read-out: BB562 Binding Kapp, PqsE variant E182W, 2 µM MnCl2
  Kd: 5730 ± 4000 nM
PqsE(E182W/E280A); PqsE(E182W/E280A), in words, relative to WT PqsE
  binding affinity for the active site fluorescent probe: WT binding affinity
PqsE(E182W/E280A); read-out: BB562 Binding Kapp, PqsE variant E182W/E280A, 2 µM MnCl2
  Kd: 418 ± 160 nM
PqsE(E182W/NI)
  Kd: 4330 nM
PqsE(E280A)
  Kd: 210 ± 90 nM
PqsE(NI)
  Kd: 428 ± 100 nM
PqsE(NI/E280A)
  Kd: 669 ± 220 nM
WT PqsE
  Kd: 416 ± 170 nM

## CCC(C)(CNC(=O)Nc1ccc(NC(=O)c2cccc3cn[nH]c23)cc1)N1CCOCC1 (stereo not drawn) [BB580]
PqsE [1]
  EC50: 99 nM

## CCC(C)(CNC(=O)Nc1ccc(C(=O)Nc2cccc3cn[nH]c23)cc1)N1CCOCC1 (stereo not drawn) [BB581]
PqsE [1]
  EC50: 281 nM

## O=C(NCc1cnccn1)Nc1ccc(NC(=O)c2cccc3cn[nH]c23)cc1 [BB582]
PqsE [1]
  EC50: 302 ± 141 nM

## O=C(NCc1ccccc1)Nc1ccc(NC(=O)c2cccc3cn[nH]c23)cc1 [BB583]
PqsE [1]
  EC50: 71 nM

## CC(C)(C)CNC(=O)Nc1ccc(NC(=O)c2cccc3cn[nH]c23)cc1 [BB584]
PqsE [1]
  EC50: 34 nM
PqsE–RhlR interaction
  inhibition/disruption of the PqsE–RhlR interaction: none of the three compounds disrupt the PqsE–RhlR interaction

## CCC(C)(CNC(=O)Nc1cnc(NC(=O)c2cccc3cn[nH]c23)s1)N1CCOCC1 (stereo not drawn) [BB585]
PqsE [1]
  EC50: > 1000 nM

## CCC(C)(CNC(=O)Nc1cc(NC(=O)c2cccc3cn[nH]c23)[nH]n1)N1CCOCC1 (stereo not drawn) [BB586]
PqsE [1]
  EC50: > 1000 nM

## CCC(CNC(=O)Nc1ccc(NC(=O)c2cccc3cn[nH]c23)cc1)N1CCOCC1 (stereo not drawn) [BB587]
PqsE [1]
  EC50: 273 nM

## CC(CNC(=O)Nc1ccc(NC(=O)c2cccc3cn[nH]c23)cc1)N1CCOCC1 (stereo not drawn) [BB588]
PqsE [1]
  EC50: 290 nM

## CCC(C)(CNC(=O)Nc1ccc(NC(=O)c2cccc3cn[nH]c23)nc1)N1CCOCC1 (stereo not drawn) [BB589]
PqsE [1]
  EC50: 608 ± 647 nM
